Test results as given in patent US11691962B2 (eXIthera Pharmaceuticals, Inc., priority 2018, dated 2023).

Key:
[1] = system: Caco-2 cells; assay: Caco-2 cell permeability assay; assay type: in vitro ADME, human; settings: Papp, 10 μM, 37° C.
How it was run: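 Caco-2 monolayers (days 21-25 post-seeding) received 10 μM compound in HBSS-MES pH 6.5 or HBSS-HEPES pH 7.4 (1% DMSO) at 37 °C, for 60 min A-B or 40 min B-A. Donor and receiver samples were quantified by HPLC-MS/MS (SRM), and Papp and recovery were calculated.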

[2] = system: human plasma protein; assay: Plasma protein binding by equilibrium dialysis; assay type: in vitro ADME; settings: pooled human plasma, 10 μM, 4 hours at 37° C.
How it was run: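 Pooled mixed-gender human plasma spiked with compound at 10 μM was dialysed against PBS pH 7.4 for 4 h at 37°C. Both compartments were quantified by HPLC-MS/MS, and % bound was calculated from plasma vs buffer peak areas.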

[3] = system: beagle dog hepatocytes; assay: Metabolic stability in dog hepatocytes; assay type: in vitro ADME; settings: 2 μM compound
How it was run: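 Pooled cryopreserved beagle hepatocytes at 500,000 cells/mL in Krebs-Henseleit buffer with 2 μM compound, 37 °C, 5% CO2, sampled out to 180 min. Acetonitrile-quenched samples analysed by LC-MS/MS; percent remaining from peak area versus time zero.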

[4] = Determination of bioavailability in a dog; assay type: in vivo; settings: plasma, male beagle dogs, IV bolus 1 mg/kg vs oral gavage 5 mg/kg, AUC comparison
Description: The following protocol was used to estimate the bioavailability of test compounds in a dog. Test compounds were formulated in vehicles compatible with intravenous and oral dosing. Test compounds were administered to male beagle dogs via an intravenous bolus at 1 mg/kg (1 mg/mL at a dose volume of 1 mL/kg) or via oral gavage at 5 mg/kg (1 mg/mL at a dose volume of 5 mL/kg). Blood samples were collected via the contralateral (to intravenous bolus) jugular vein or via other accessible vein, at various timepoints following administration out to 24 hours post dose. Plasma samples (EDTA) were obtained by centrifugation (2200×g for 10 minutes at 5° C.) and stored frozen ([…]) until analyzed for parent compound via LC/MS/MS. Pharmacokinetic parameters were estimated from the plasma concentration time data by standard non-compartmental methods utilizing standard analysis software. By comparing the area under the curve (AUC) for IV and PO administration estimates of oral bioavailability were determined.

Compound | bioavailability [4] [%] | further results
(2S,3R)-3-((2-amino-6-methylpyridin-4-yl)methyl)-N2-(1-methyl-1H-imidazol-2-yl)-N1-((R)-1-(3-fluorophenyl)propyl)-N2-methyl-4-oxoazetidine-1,2-dicarboxamide [Compound 1-120] | – | Caco-2 Permeability (A-B) ([1]; apical to basolateral, 60 min): P (“P” indicates < 10 × 10^−6 cm/s); Caco-2 Permeability (B-A) ([1]; basolateral to apical, 40 min): Q (“Q” indicates 11-30 × 10^−6 cm/s); PPB (%) [2]: Z (“Z” indicates 50-90%); Dog Hepatocyte Stability (t1/2) [3]: N (“N” indicates > 240 min)
CC[C@@H](NC(=O)N1C(=O)[C@H](Cc2ccnc(N)c2)[C@H]1C(=O)N(C)c1ccnn1C)c1cccc(Cl)c1 [Compound 1-4, (2S,3R)-3-((2-aminopyridin-4-yl)methyl)-N2-(1-methyl-1H-pyrazol-5-yl)-N1-((R)-1-(3-chlorophenyl)propyl)-N2-methyl-4-oxoazetidine-1,2-dicarboxamide] | > 30 | –
CC[C@@H](NC(=O)N1C(=O)[C@H](Cc2cc(C)nc(NC)c2)[C@H]1C(=O)N(C)c1nccn1C)c1ccccc1 [Compound 1-45, (2S,3R)-3-((2-methylamino-6-methylpyridin-4-yl)methyl)-N2-(1-methyl-1H-imidazol-2-yl)-N1-((R)-1-phenylpropyl)-N2-methyl-4-oxoazetidine-1,2-dicarboxamide] | 11 to 30 | –
CC[C@@H](NC(=O)N1C(=O)[C@H](Cc2cc(C)nc(N)c2)[C@H]1C(=O)N(C)c1nccn1C)c1ccccc1 [Compound 1-51, (2S,3R)-3-((2-amino-6-methylpyridin-4-yl)methyl)-N2-(1-methyl-1H-imidazol-2-yl)-N1-((R)-1-phenylpropyl)-N2-methyl-4-oxoazetidine-1,2-dicarboxamide] | > 30 | –
CC[C@@H](NC(=O)N1C(=O)[C@H](Cc2ccnc(N)c2)[C@H]1C(=O)N(C)c1ccnn1C)c1ccccc1 [Compound 1-92, (2S,3R)-3-((2-aminopyridin-4-yl)methyl)-N2-(1-methyl 1H-pyrazol-5-yl)-N1-((R)-1-phenylpropyl)-N2-methyl-4-oxoazetidine-1,2-dicarboxamide] | > 30 | –
CC[C@@H](NC(=O)N1C(=O)[C@H](Cc2ccnc(N)c2)[C@H]1C(=O)N(C)c1nccn1C)c1ccccc1 [Compound 1-13, (2S,3R)-3-((2-aminopyridin-4-yl)methyl)-N2-(1-methyl-1H-imidazol-2-yl)-N1-((R)-1-phenylpropyl)-N2-methyl-4-oxoazetidine-1,2-dicarboxamide] | > 30 | –
CC[C@@H](NC(=O)N1C(=O)[C@H](Cc2ccnc(N)c2)[C@H]1C(=O)N(C)c1ccn(C)n1)c1ccccc1 [Compound 1-3, (2S,3R)-3-((2-aminopyridin-4-yl)methyl)-N2-(1-methyl-1H-pyrazol-3-yl)-N1-((R)-1-phenylpropyl)-N2-methyl-4-oxoazetidine-1,2-dicarboxamide] | > 30 | –
CC[C@@H](NC(=O)N1C(=O)[C@H](Cc2ccnc(N)c2)[C@H]1C(=O)N(C)c1cccs1)c1ccccc1 [Compound 1-10, (2S,3R)-3-((2-aminopyridin-4-yl)methyl)-N2-(thiophen-2-yl)-N1-((R)-1-phenylpropyl)-N2-methyl-4-oxoazetidine-1,2-dicarboxamide] | 11 to 30 | –
CC[C@@H](NC(=O)N1C(=O)[C@H](Cc2ccnc(N)c2)[C@H]1C(=O)N(C)c1ccn(C)n1)c1cccc(Cl)c1 [Compound 1-91, (2S,3R)-3-((2-aminopyridin-4-yl)methyl)-N2-(1-methyl-1H-pyrazol-3-yl)-N1-((R)-1-(3-chlorophenyl)propyl)-N2-methyl-4-oxoazetidine-1,2-dicarboxamide] | > 30 | –
CC[C@@H](NC(=O)N1C(=O)[C@H](Cc2ccnc(N)c2)[C@H]1C(=O)N(C)c1nccn1C)c1ccc(C)nc1 [Compound 1-81, (2S,3R)-3-((2-aminopyridin-4-yl)methyl)-N2-(1-methyl-1H-imidazol-2-yl)-N1-((R)-1-(6-methylpyridin-3-yl)propyl)-N2-methyl-4-oxoazetidine-1,2-dicarboxamide] | < 10 | –
CC[C@@H](NC(=O)N1C(=O)[C@H](Cc2cc(C)nc(N)c2)[C@H]1C(=O)N(C)c1ccn(C)n1)c1cccc(Cl)c1 [Compound 1-89, (2S,3R)-3-((2-amino-6-methylpyridin-4-yl)methyl)-N2-(1-methyl-1H-pyrazol-3-yl)-N1-((R)-1-(3-chlorophenyl)propyl)-N2-methyl-4-oxoazetidine-1,2-dicarboxamide] | > 30 | –
